Data set [1] is described as follows: Absorption wavelength of the synthesized dye (HP 8452 diode array spectrophotometer). It is filed as physicochemical. The protocol:
(§1) First, the experimental apparatuses, analytical instruments and reagents used in the examples and experiments are described. Bruker's Avance 300 and 400 were used for FT-NMR spectroscopy, and the Voyager MALDI-TOF DE mass spectrometer was used for MALDI-TOF M/S. Absorption wavelength of the synthesized dye and the absorbance at maximum absorption wavelength were measured using Hewlett-Packard's HP 8452 diode array spectrophotometer. Emission wavelength and light emission at maximum emission wavelength were measured using Perkin Elmer's LS-55.

The nature of data set [2]: Emission wavelength at maximum emission (Perkin Elmer LS-55). It is filed as physicochemical. The protocol:
as §1

The test system of data set [3] is marker proteins (Amersham LMW calibration kit: phosphorylase b, albumin, ovalbumin, carbonic anhydrase, trypsin inhibitor, α-lactalbumin). The data set can be described thus: Staining of proteins, separated by gel electrophoresis, fluorescence image. The following applies: 0.1M phosphate buffer pH 9.0, room temperature, 1 hour; electrophoresis 125 V, 2 hours. As for the experimental part:
Gel electrophoresis was carried out using Bio-Rad's PowerPac Basic Power Supply (Catalog No. 164-5050) coupled to the Amersham Biosciences's SE260 mini-vertical gel electrophoresis unit. Lonza's PAGEr Gold Precast Gels (polyacrylamide gels for protein electrophoresis, 10-20% Tris-glycine gels, Catalog No. 59506) were used as gels. Running and loading buffers for SDS-PAGE were prepared as follows prior to use.
Size markers commercially available from GE Healthcare and Takara were used as proteins. Perkin Elmer's Geliance 600 was used for observation of labeled biomolecules and measurement of fluorescence intensity. Geliance UV Epi (Catalog No. L7110026) and Geliance Blue Epi (Catalog No. L7110027) were used as light sources. Measurement was carried out using UV filter, Geliance short-pass filter (500-600 nm), Geliance long-pass filter (580-660 nm) and Geliance blue light filter (550-600 nm) while changing the filters in accordance with fluorescence wavelengths.
Each vial of one pack of Amersham™ LMW calibration kit (17-0446-01) for SDS electrophoresis commercially available from GE Healthcare contains 576 μg of six marker proteins, which are phosphorylase b (97 kD, 67 μg), albumin (66 kD, 83 μg), ovalbumin (45 kD, 147 μg), carbonic anhydrase (30 kD, 83 μg), trypsin inhibitor (20.1 kD, 80 μg) and α-lactalbumin (14.4 kD, 116 μg). […]

From patent US20130102752A1, “BENZINDOCYANINE COMPOUND FOR LABELING SUBSTANCE, INTERMEDIATE THEREOF, AND METHOD FOR PREPARING THE SAME” (DKC CORPORATION, priority 2010, published 2013) come the findings set out here.

`CC[N+]1=C(/C=C/C=C2/N(CCCCCC(=O)O)c3ccc4c(S(=O)(=O)O)cc(S(=O)(=O)O)cc4c3C2(C)C)C(C)(C)c2c1ccc1c(S(=O)(=O)[O-])cc(S(=O)(=O)O)cc21`: the “λabs (water)” value in data set [1] was 579 nm. In data set [2], the “λfl (water)” value was 594 nm.
As to `C=CS(=O)(=O)CCNC(=O)CCCCCN1/C(=C/C=C/C=C/C2=[N+](CC)c3ccc4c(S(=O)(=O)[O-])cc(S(=O)(=O)O)cc4c3C2(C)C)C(C)(C)c2c1ccc1c(S(=O)(=O)O)cc(S(=O)(=O)O)cc21` [Compound 1-1], in data set [3], the “visibility of stained proteins after gel electrophoresis (FIG. 1)” value is on record as “discernible with naked eyes”. Moreover, the “λabs (water)” value in data set [1] is on record as 675 nm. In data set [2], the “λfl (water)” value is on record as 695 nm.
As to `C=CS(=O)(=O)CCNC(=O)CCCCCN1/C(=C/C=C/C=C/C=C/C2=[N+](CC)c3ccc4c(S(=O)(=O)[O-])cc(S(=O)(=O)O)cc4c3C2(C)C)C(C)(C)c2c1ccc1c(S(=O)(=O)O)cc(S(=O)(=O)O)cc21` [Compound 1-2], the “visibility of stained proteins after gel electrophoresis (FIG. 1)” value in data set [3] is “discernible with naked eyes”. Moreover, in data set [1], the “λabs (water)” value was found to be 777 nm. The “λfl (water)” value in data set [2] was 803 nm.
Take `C=CS(=O)(=O)CCNC(=O)CCCCCN1/C(=C/C=C/C2=[N+](CC)c3ccc4c(S(=O)(=O)[O-])cc(S(=O)(=O)O)cc4c3C2(C)C)C(C)(C)c2c1ccc1c(S(=O)(=O)O)cc(S(=O)(=O)O)cc21` [Compound 1-3]: in data set [1], the “λabs (water)” value is on record as 579 nm. In addition, the “λfl (water)” value in data set [2] was 594 nm.
Take `C=CS(=O)(=O)CCNC(=O)CCCCCN1/C(=C/C=C/C=C/C2=[N+](CC)c3ccc4ccccc4c3C2(C)C)C(C)(C)c2c1ccc1ccccc21` [Compound 1-4]: the “λabs (methanol)” value in data set [1] was found to be 680 nm. In addition, the “λfl (methanol)” value in data set [2] is 710 nm.
With `C=CS(=O)(=O)CCNC(=O)CCCCCCCN1/C(=C/C=C/C=C/C2=[N+](CC)c3ccc4c(S(=O)(=O)O)cc(S(=O)(=O)[O-])cc4c3C2(C)C)C(C)(C)c2c1ccc1c(S(=O)(=O)O)cc(S(=O)(=O)O)cc21` [Compound 1-5], in data set [1], the “λabs (water)” value was determined as 675 nm. Further, the “λfl (water)” value in data set [2] is 704 nm.
In the case of `CC[N+]1=C(/C=C/C=C/C=C2/N(CCCCCC(=O)O)c3ccc4c(S(=O)(=O)O)cc(S(=O)(=O)O)cc4c3C2(C)C)C(C)(C)c2c1ccc1c(S(=O)(=O)[O-])cc(S(=O)(=O)O)cc21` [Compound 10-1], in data set [1], the “λabs (water)” value is on record as 675 nm. Besides, the “λfl (water)” value in data set [2] is on record as 695 nm.
The corresponding values for `CC[N+]1=C(/C=C/C=C/C=C/C=C2/N(CCCCCC(=O)O)c3ccc4c(S(=O)(=O)O)cc(S(=O)(=O)O)cc4c3C2(C)C)C(C)(C)c2c1ccc1c(S(=O)(=O)[O-])cc(S(=O)(=O)O)cc21` [Compound 10-3] are 777 nm and 803 nm.
With `CC[N+]1=C(/C=C/C=C/C=C2/N(CCCCCC(=O)O)c3ccc4ccccc4c3C2(C)C)C(C)(C)c2c1ccc1ccccc21` [Compound 10-4], the “λabs (methanol)” value in data set [1] is 697 nm. The “λfl (methanol)” value in data set [2] is given as 713 nm.
Take `CC[N+]1=C(/C=C/C=C/C=C2/N(CCCCCCCC(=O)O)c3ccc4c(S(=O)(=O)O)cc(S(=O)(=O)O)cc4c3C2(C)C)C(C)(C)c2c1ccc1c(S(=O)(=O)O)cc(S(=O)(=O)[O-])cc21` [Compound 10-5]: the “λabs (water)” value in data set [1] was 675 nm. Moreover, the “λfl (water)” value in data set [2] turned out to be 704 nm.
